Results from paper PMC5344539, “Nematode neuropeptides as transgenic nematicides” (PLoS Pathogens, 2017).
“Also recorded” adds a separate entry of the source.

Key:
[1] = tested on: G. pallida J2s; assay: Chemosensory (chemotaxis) assay of uNLP pre-treated J2s towards tomato root exudate; format: in vivo, Globodera pallida; settings: for effect on chemosensation (in words): 100 μM uNLP, 24 h, relative to controls; for CI score: Fig 2A, J2s incubated in 100 μM uNLP for 24 h, tomato cv. Moneymaker root exudate vs water agar plugs, counted after 3 h, mean of 10 replicates of 100 J2s, control 0.4154
Method: (§1) Predicted uNLPs from both M. incognita and G. pallida were synthesised by EZBiolab and dissolved into pH adjusted ddH2O to make a 5 mM stock which was aliquoted and stored at -20°C. J2s of both M. incognita and G. pallida were incubated for 24 hours in 200 μl of each peptide in a 24 well plate (SPL Lifesciences, South Korea) at a defined concentration.
(§2) A 60 mm Petri dish was divided into two segments, a positive and a negative side, with a 0.5 cm 'dead zone' either side of the centre point. The petri dish was filled with 15 ml of 0.25% w/v agar which was allowed to solidify. 3 ml of 0.25% w/v agar slurry in spring water (pH 7, agitated with a magnetic stirrer for several hours to give a smooth consistency) was added to the petri dish and spread evenly over the surface. Root diffusate (attractant) and water only (control) 0.25% agar plugs were embedded in the agar slurry, either side of the assay arena. Root diffusate was collected from 10 tomato plants, aged 3–6 weeks in 1 litre pots, by pouring 500 ml of ddH20 through the soil three times. Diffusate from each plant was combined, filter sterilised and stored at 4°C for a maximum of 1 month. Root diffusate agar plugs were made by melting 1.25% agar in ddH20, cooling to 50°C before mixing with 4 parts of root diffusate. The agar was then allowed to solidify at room temperature. 100 uNLP pre-treated M. incognita or G. pallida J2s were added by pipette to the centre of the plate. J2s which moved out of the 'dead zone' after 3 hours were counted and their location (+/-) scored. The distribution of J2s were used to create a chemotaxis index for each plate, which formed one replicate, a total of 10 replicates where completed for each uNLP treatment.

[2] = tested on: G. pallida J2s; assay: Serotonin-induced stylet thrusting assay; format: in vivo, Globodera pallida; settings: for effect on serotonergic-induced stylet thrusting (in words): 100 μM uNLP, 24 h, 2 mM serotonin, relative to controls; for % Thrusting: Fig 2C, J2s incubated in 100 μM uNLP for 24 h, stylet thrusts in 2 mM serotonin, counted 1 min, normalised to control = 100%, mean, at least 30 J2s
Method: as §1
(§3) Stylet thrusting assays where performed by incubating 100 M. incognita or G. pallida J2s for 15 minute in 5 mM or 2 mM serotonin (Sigma Aldrich, USA), respectively. J2s were placed on a glass slide and stylet thrusts were counted for randomly selected J2s, for 1 minute each. Counts for a given cohort of J2s were taken in a maximum interval of 15 minutes. Longer counting intervals, making for longer serotonin incubations, yielded inconsistent results. At least 30 J2s were counted for each neuropeptide treatment.

[3] = tested on: M. incognita J2s; assay: Chemosensory (chemotaxis) assay of uNLP pre-treated J2s towards tomato root exudate; format: in vivo, Meloidogyne incognita; settings: for effect on chemosensation (in words): 100 μM uNLP, 24 h, relative to controls; for CI score: Fig 1A, J2s incubated in 100 μM uNLP for 24 h, tomato cv. Moneymaker root exudate vs water agar plugs, counted after 3 h, mean of 10 replicates of 100 J2s, control 0.4426
Method: as §1, §2

[4] = tested on: M. incognita J2s; assay: Tomato invasion assay with uNLP pre-treated J2s; format: in vivo, Meloidogyne incognita; settings: for % Invasion: Fig 1B, 500 J2s incubated in 100 μM uNLP for 24 h, single tomato seedling, 24 h at 23°C, normalised to negative control = 100%, mean; for effect on host invasion (in words): 100 μM uNLP, 24 h, tomato cv. Moneymaker, relative to controls
Method: as §1
(§4) Tomato seeds were sterilised with 2.5% NaOCl for 15 minutes, washed 5 times in ddH20 and germinated on 0.5% Murashige and Skoog plates at 23°C. […] Invasion assays were performed by mixing 500 pre-treated M. incognita or G. pallida J2s with agar slurry and a single tomato seedling (2 days post germination) in a 6 well plate. Assays were left at 23°C for 24 hours in the case of M. incognita and at 18°C for 24 hours in the case of G. pallida under a 16 hour light and 8 hour darkness cycle. Seedlings were stained using acid fuschin [69] and the number of nematodes within the roots counted. At least five seedlings were used for M. incognita infections assays, with at least 15 seedlings used for G. pallida infections assays (due to increased variation).

[5] = tested on: M. incognita J2s; assay: Serotonin-induced stylet thrusting assay; format: in vivo, Meloidogyne incognita; settings: for effect on serotonergic-induced stylet thrusting (in words): 100 μM uNLP, 24 h, 5 mM serotonin, relative to controls; for % Thrusting: Fig 1C, J2s incubated in 100 μM uNLP for 24 h, stylet thrusts in 5 mM serotonin, counted 1 min, normalised to control = 100%, mean, at least 30 J2s
Method: as §1, §3

[6] = tested on: G. pallida J2s; assay: Tomato invasion assay with uNLP pre-treated J2s; format: in vivo, Globodera pallida; settings: Fig 2B; 500 J2s incubated in 100 μM uNLP for 24 h; single tomato seedling, 24 h at 18°C; normalised to negative control = 100%; mean
Method: as §1, §4

## GGARAFNGAEETLLNVANLA [Gp-NLP-21i, predicted unamidated NLP of G. pallida, synthesised]
[1]
  effect on chemosensation (in words): inhibit chemosensation
  CI score: -0.1733
[2]
  effect on serotonergic-induced stylet thrusting (in words): modulating stylet thrusting rates
  % Thrusting: 117.70%

## GGARTFLVGE [Mi-NLP-9b, predicted unamidated NLP of M. incognita, synthesised]
[3]
  effect on chemosensation (in words): inhibit chemosensation
  CI score: -0.07417

## AFDLFTGPGFTGMD [Gp-NLP-15h, predicted unamidated NLP of G. pallida, synthesised]
[1]
  CI score: -0.06784

## SSQFGGENSFARFAFA [Mi-NLP-18e, predicted unamidated NLP of M. incognita, synthesised]
[4]
  % Invasion: 46.49%

## FNDDELSSLPFNFEYFPSLDTH [Mi-NLP-8b, predicted unamidated NLP of M. incognita, synthesised]
[4]
  % Invasion: 61.38%

## SFDSLTGPGFTGLDT [Gp-NLP-15a, predicted unamidated NLP of G. pallida, synthesised]
[1]
  CI score: -0.1451

## SFDSFVGKGFTGMD [Mi-NLP-15c, predicted unamidated NLP of M. incognita, synthesised]
[3]
  effect on chemosensation (in words): inhibit chemosensation
  CI score: -0.359

## ALDMMEGDDFIGL [Mi-NLP-14c, predicted unamidated NLP of M. incognita, synthesised]
[3]
  effect on chemosensation (in words): no negative impact on J2 chemosensory ability
[4]
  effect on host invasion (in words): reduce host invasion rates
  % Invasion: 20.96%
[5]
  effect on serotonergic-induced stylet thrusting (in words): excitation; also recorded: agonise serotonergic stylet thrusting
  % Thrusting: 134.70%

## GMRNFAFA [Mi-NLP-18b, predicted unamidated NLP of M. incognita, synthesised]
[3]
  effect on chemosensation (in words): no negative impact on J2 chemosensory ability
[4]
  effect on host invasion (in words): reduce host invasion rates
  % Invasion: 47.81%
[5]
  effect on serotonergic-induced stylet thrusting (in words): agonise serotonergic stylet thrusting
  % Thrusting: 146.60%

## GGTRAFNFFVSDALPSSYE [Gp-NLP-21c, predicted unamidated NLP of G. pallida, synthesised]
[6]
  % Invasion: 14.07%

## AFDSFAGNGFTGFD [Mi-NLP-15f, predicted unamidated NLP of M. incognita, synthesised]
[3]
  effect on chemosensation (in words): inhibit chemosensation
  CI score: -0.05
[4]
  effect on host invasion (in words): does not impact on host invasion
[5]
  effect on serotonergic-induced stylet thrusting (in words): reduces stylet thrusting rate
  % Thrusting: 75.18%

## ALDILESDDFGGF [Gp-NLP-14a, predicted unamidated NLP of G. pallida, synthesised]
[1]
  CI score: -0.3765

## AFDRLDNSFMLL [Mi-NLP-8d, predicted unamidated NLP of M. incognita, synthesised]
[4]
  % Invasion: 29.31%

## GGARAFNFFAPPDE [Gp-NLP-21a, predicted unamidated NLP of G. pallida, synthesised]
[6]
  % Invasion: 178.90%

## FAPRQFAFA [Mi-NLP-18a, predicted unamidated NLP of M. incognita, synthesised]
[3]
  effect on chemosensation (in words): inhibited
  CI score: -0.1353
[4]
  effect on host invasion (in words): inhibited
  % Invasion: 25.88%

## AAENFDENNDIN [Mi-NLP-18d, predicted unamidated NLP of M. incognita, synthesised]
[3]
  effect on chemosensation (in words): no negative impact on J2 chemosensory ability
[4]
  effect on host invasion (in words): reduce host invasion rates
  % Invasion: 34.21%
[5]
  effect on serotonergic-induced stylet thrusting (in words): agonise serotonergic stylet thrusting
  % Thrusting: 147.70%

## ALDMLEGDDFIGMQ [Mi-NLP-14a, predicted unamidated NLP of M. incognita, synthesised]
[4]
  effect on host invasion (in words): does inhibit host invasion
  % Invasion: 44.61%
[5]
  effect on serotonergic-induced stylet thrusting (in words): inhibition; also recorded: reduces stylet thrusting rate
  % Thrusting: 61.60%

## SSLASGRIGFRPA [Mi-NLP-2, predicted unamidated NLP of M. incognita, synthesised]
[5]
  % Thrusting: 164.40%

## SFDSFTGSGFTGLD [Gp-NLP-15c, predicted unamidated NLP of G. pallida, synthesised]
[1]
  effect on chemosensation (in words): inhibit chemosensation
  CI score: -0.227
[2]
  effect on serotonergic-induced stylet thrusting (in words): modulating stylet thrusting rates
  % Thrusting: 56.07%

## GGARAFFGDADGPFNSASYWAP [Gp-NLP-21h, predicted unamidated NLP of G. pallida, synthesised]
[1]
  effect on chemosensation (in words): inhibit chemosensation
  CI score: -0.01564
[2]
  effect on serotonergic-induced stylet thrusting (in words): modulating stylet thrusting rates
  % Thrusting: 116.80%

## AFDSFTGPGFTGMD [Gp-NLP-15g, predicted unamidated NLP of G. pallida, synthesised]
[1]
  CI score: -0.2208

## ALDILDGDDFTGFS [Gp-NLP-14e, predicted unamidated NLP of G. pallida, synthesised]
[1]
  CI score: -0.0641

## AFDRLDVSPFDFDAMT [Mi-NLP-8a, predicted unamidated NLP of M. incognita, synthesised]
[3]
  CI score: 0.018
[5]
  % Thrusting: 126.10%

## SAFDSFVGRGFTGMD [Mi-NLP-15e, predicted unamidated NLP of M. incognita, synthesised]
[3]
  effect on chemosensation (in words): inhibit chemosensation
  CI score: -0.01767
[4]
  % Invasion: 38.71%

## SFGDYPFGSRTFAFA [Mi-NLP-18c, predicted unamidated NLP of M. incognita, synthesised]
[5]
  % Thrusting: 175.50%

## GGARPFYGGGYMDGTW [Gp-NLP-21f, predicted unamidated NLP of G. pallida, synthesised]
[1]
  CI score: 0.1456

## AFDSFGTPGFTGFD [Mi-NLP-15a, predicted unamidated NLP of M. incognita, synthesised]
[3]
  effect on chemosensation (in words): inhibit chemosensation
  CI score: -0.01067

## GGARPFYGFFGGGEGTW [Mi-NLP-9e, predicted unamidated NLP of M. incognita, synthesised]
[4]
  % Invasion: 48.68%

## AGARAFQRPDFDDASYEL [Mi-NLP-9a, predicted unamidated NLP of M. incognita, synthesised]
[4]
  % Invasion: 45.59%

## AGGRLFRMVDLPDGDDFVPEG [Gp-NLP-21e, predicted unamidated NLP of G. pallida, synthesised]
[1]
  CI score: -0.3804

## ALDLMEGDGFGGGFD [Mi-NLP-14b, predicted unamidated NLP of M. incognita, synthesised]
[3]
  CI score: -0.1155

## GGARAFAKLEE [Mi-NLP-9c, predicted unamidated NLP of M. incognita, synthesised]
[5]
  % Thrusting: 143.20%
